Assay results from patent US20230286960A1, “ALLOSTERIC CHROMENONE INHIBITORS OF PHOSPHOINOSITIDE 3-KINASE (PI3K) FOR THE TREATMENT OF DISEASE” (Petra Pharma Corporation, priority 2020, published 2023).

Assay: Mouse PK Assays
Type: in vivo
Set-up: PK-Mouse: PO AUC-last/dose: unit not given here
Conditions: fed
[1] = PO 10 mg/kg, 20% DMSO/60% PEG400/20% Water
[2] = PO 50 mg/kg, 20% DMSO/60% PEG400/20% Water
[3] = PO 10 mg/kg, 30% SBE-beta-cyclodextrin
[4] = PO 100 mg/kg, 20% DMSO/60% PEG400/20% H2O

Compound | PK-Mouse: F % Calcd [1] [%] | PK-Mouse: PO AUC-last/dose [1] | PK-Mouse: F % Calcd [2] [%] | PK-Mouse: PO AUC-last/dose [2] | PK-Mouse: F % Calcd [3] [%] | PK-Mouse: PO AUC-last/dose [3] | PK-Mouse: F % Calcd [4] [%] | PK-Mouse: PO AUC-last/dose [4]
Cc1cc(C(C)Nc2ccccc2C(=O)O)c2oc(N3Cc4ccccc4C3)cc(=O)c2c1 (single isomer, unassigned) [Example 363, 2-[1-(2-Isoindolin-2-yl-6-methyl-4-oxo-chromen-8-yl)ethylamino]benzoic acid] | 86 | 1800 | 33 | 700 |  |  |  | 
Cc1cc(C(C)Nc2ccccc2C(=O)O)c2oc(N3CCC(C)(C)CC3)cc(=O)c2c1 (single isomer, unassigned) [Example 366, 2-[1-[2-(4,4-Dimethyl-1-piperidyl)-6-methyl-4-oxo-chromen-8-yl]ethylamino]benzoic acid] |  |  | 280 | 960 | 110 | 390 | 220 | 760
